Assay results: BindingDB's records for doi:10.1021/jm050654o (University of Bari Aldo Moro, 2005)

Assay: Antiproliferative activity mediated by sigma 1 receptor in rat C6 glioma cells by MTT assay

`CCCN(CCC)CCc1ccc(OC)c(OCCc2ccccc2)c1` and `COc1ccc2c(CCCCN3CCCC(C)(C)C3)cccc2c1` are within 1.5-fold of each other in EC50: 10.7 µM for the first, 15 µM for the second.

First: COc1ccc2c(CCCN3CCCC(C)(C)C3)cccc2c1
Second: COc1ccc2c(CCCCN3CCCCC3)cccc2c1
The EC50 of the first is 2.1-fold higher: 40.2 µM for the first, 19.4 µM for the second.

In the case of `COc1ccc2c(CCCCN3CCC(C)CC3)cccc2c1`, the EC50 is reported as 25.5 µM.
